Measurements: patent publication US8337835B2, “Use of an endogenous ligand for peroxisome proliferator activated receptor alpha to treat liver disorders” (priority 2009, dated 2012)

System: PPARα target gene (ACO and CPT-1) expression
Test: PPARα target gene (ACO and CPT-1) expression by quantitative RT-PCR in Hepa 1-6 cells
Format: cell-based
Details: Hepa 1-6 mouse hepatoma cells, 24 h, serum-free DMEM
Procedure: RT-PCR gene expression analysis and binding assays were employed to address this objective. Wy14,643, 16:0/18:1-GPC, and 18:1/16:0-GPC on PPARα target gene (ACO and CPT-1) expression was measured by quantitative RT-PCR in Hepa 1-6 cells treated for 24 h as in FIG. 6A. Results are mean±SEM of 9 separate experiments. *, P<0.05 compared to control (Ctrl, 80% PBS/20% DMSO).
The C57BL/6 mouse hepatoma cell line Hepa 1-6 (ATCC, CRL-1830) was expanded in DMEM with 10% fetal bovine serum. For experiments, cells were cultured to 50-60% confluence, washed twice with PBS, and the medium was changed to serum-free DMEM supplemented with the various types and concentrations of phosphatidylcholine (sonicated to homogeneity in PBS/1% ethanol/4% fatty acid-free BSA), Wy14,643 (dissolved in 80% PBS/20% DMSO), or vehicle-only solutions. 24 h later, cells were washed, RNA prepared, and ACO and CPT-1 expression levels were determined by quantitative RT-PCR (see FIG. 6). For siRNA experiments, 50-60% confluent cells were treated with siRNAs or their scrambled controls (all diluted in PBS) for 72 h. Following the 72 h siRNA treatment, another set of cells received 16:0/18:1-GPC (using a concentration based on dose-response experiments) for an additional 24 h. Stealth™ siRNA oligonucleotides were used to inhibit the gene expression of mouse ChPT1 ([…]) (SEQ ID NO: 1) and CEPT1 ([…]) (SEQ ID NO: 2) were from Invitrogen (Carlsbad, Calif.).
Total RNA was extracted from Hepa 1-6 cells and liver using Trizol (Invitrogen) and treated with DNase I (RNase-free, Roche Molecular Biochemicals). Reverse transcription to cDNA and real-time quantitative PCR were performed using previously published procedures and primer-probe sequences for ACO and CPT-1 (Chakravarthy et al., 2005). […] Relative mRNA levels were calculated using both the comparative CT and standard curve methods normalized to ribosomal protein L32, an invariant internal control. […]

Compound: CCCCCCCC/C=C\CCCCCCCC(=O)OC[C@H](COP(=O)([O-])OCC[N+](C)(C)C)OC(=O)CCCCCCCCCCCCCCC [18:1/16:0-GPC, 1-oleoyl-2-palmitoyl-sn-glycero-3-phosphocholine, reference compound]
- expression of PPARα-dependent genes ACO and CPT-I: does not induce PPARα-dependent gene expression
